{"source": "paper PMC6543040", "about": "“Structural and biochemical characterization of Rv0187, an O-methyltransferase from Mycobacterium tuberculosis” (Scientific Reports, 2019)", "molecules": {"B1": {"name": "Rv0187 fused with a C-terminal His6-tag (pLATE31-Rv0187 construct) (enzyme)", "chain": "MDQQPNPPDVDAFLDSTLVGDDPALAAALAASDAAELPRIAVSAQQGKFLCLLAGAIQARRVLEIGTLGGFSTIWLARGAGPQGRVVTLEYQPKHAEVARVNLQRAGVADRVEVVVGPALDTLPTLAGGPFDLVFIDADKENNVAYIQWAIRLARRGAVIVVDNVIRGGGILAESDDADAVAARRTLQMMGEHPGLDATAIQTVGRKGWDGFALALVR", "notes": "also called MTB Rv0187; C-terminal His6-tagged construct; not shown: His6, C-terminal, kept"}}, "key": {"[1]": {"molecular_target": "T1, Rv0187 (Mycobacterium tuberculosis, UniProt O07431)", "T1 sequence (O07431 whole entry)": "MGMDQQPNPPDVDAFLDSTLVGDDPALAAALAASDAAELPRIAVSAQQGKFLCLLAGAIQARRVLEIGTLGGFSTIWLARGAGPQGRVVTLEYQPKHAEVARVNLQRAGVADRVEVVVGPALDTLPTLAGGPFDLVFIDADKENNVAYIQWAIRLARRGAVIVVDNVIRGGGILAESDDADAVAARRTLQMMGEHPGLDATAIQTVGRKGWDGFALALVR", "assay_type": "biochemical", "parameters": "pLATE31-Rv0187 (C-terminal His6-tag)"}, "[2]": {"molecular_target": "T1, Rv0187", "assay": "co-crystal structure, […] Å", "assay_type": "binding", "parameters": "C-terminal His6-tag after a TEV cleavage site (pLATE31-Rv0187-TEV)"}, "[3]": {"molecular_target": "T1, Rv0187", "assay": "biochemical", "assay_type": "binding"}, "[4]": {"tested_on": "COc1cc(C(=O)O)cc(O)c1O", "assay": "purified protein", "settings": "SAM; Mg2+"}, "[5]": {"tested_on": "O=C(O)/C=C/c1ccc(O)c(O)c1", "assay": "purified protein", "settings": "SAM; Mg2+"}, "[6]": {"tested_on": "O=C(O)c1ccc(O)c(O)c1", "assay": "purified protein", "settings": "SAM; Mg2+"}, "[7]": {"molecular_target": "the molecule itself", "assay": "SEC"}}}
{"molecule": "O=Cc1ccc(O)c(O)c1", "note": "[DHA, 3,4-dihydroxy-benzaldehyde]", "values": [{"measurement": "in vitro methyltransfer assay, HPLC/LC-MS", "setting": "[1]", "value": "DHA, dopamine and CA were preferentially methylated at the meta position"}]}
{"molecule": "O=C(O)c1cc(O)c(O)c(O)c1", "note": "[GA, gallic acid]", "values": [{"measurement": "in vitro methyltransfer assay, HPLC/LC-MS", "setting": "[1]", "value": "PCA, 5OMeBA, and GA were more readily modified at the para-hydroxyl group"}]}
{"molecule": "Nc1ncnc2c1ncn2[C@@H]1O[C@H](CSCC[C@H](N)C(=O)O)[C@@H](O)[C@H]1O", "note": "[SAH, S-adenosyl-l-homocysteine]", "values": [{"measurement": "co-crystal structure, 1.64 Å", "setting": "[2]", "value": "each subunit exhibits the unambiguous presence of a divalent metal ion and SAH"}]}
{"molecule": "C[S+](CC[C@H](N)C(=O)[O-])C[C@H]1O[C@@H](n2cnc3c(N)ncnc32)[C@H](O)[C@@H]1O", "note": "(stereo partly drawn) [SAM, S-adenosyl-l-methionine]", "values": [{"measurement": "Kd", "setting": "[3]", "value": "9.3 ± 0.7", "unit": "µM"}]}
{"molecule": "NCCc1ccc(O)c(O)c1", "note": "[dopamine]", "values": [{"measurement": "in vitro methyltransfer assay, HPLC/LC-MS", "setting": "[1]", "value": "DHA, dopamine and CA were preferentially methylated at the meta position"}]}
{"molecule": "O=c1[nH]c(=O)n([C@@H]2O[C@H](CO)[C@@H](O)[C@H]2O)cc1O", "note": "[ho^5U, 5-hydroxyuridine]", "values": [{"measurement": "in vitro methyltransfer assay, HPLC/LC-MS", "setting": "[1]", "value": "methylation of 5-hydroxyuridine (ho^5U) yielded a single product, 5-methoxyuridine (mo^5U)"}]}
{"molecule": "O=c1c(O)c(-c2ccc(O)c(O)c2)oc2cc(O)cc(O)c12", "note": "[quercetin]", "values": [{"measurement": "in vitro methyltransfer assay, HPLC/LC-MS", "setting": "[1]", "value": "Rv0187 was able to methylate flavonoids (luteolin and quercetin), although the precise methylation site could not be assigned"}]}
{"molecule": "Rv0187 (Mycobacterium tuberculosis H37Rv)", "values": [{"measurement": "Km", "setting": "[4]", "value": "30 ± 4", "unit": "µM"}, {"measurement": "Km", "setting": "[5]", "value": "490 ± 170", "unit": "µM"}, {"measurement": "Km", "setting": "[6]", "value": "150 ± 20", "unit": "µM"}]}
{"molecule": "B1", "values": [{"measurement": "stoichiometry N", "setting": "[7]", "value": 2}]}
